# How the values were obtained:
# [1] = Relaxivity (r1, r2) in saline; type: physicochemical; details: NaCl 0.15M in water - pH 7.3 - 20 MHz - 39° C.
# From the text: (§1) Relaxivity values of the contrast agent of the present invention have been tested either in saline or in human serum obtained by Seronorm™ Human, freeze-dried human serum produced by Nycomed Pharma AS, Oslo, Norway. Serum obtained from said Seronorm™ is substantially equivalent to the fresh one, so its use in the relaxivity determination grants a good picture of the “in vivo” behaviour and, further, an excellent reproducibility of this test.
# [2] = Relaxivity (r1, r2) in human serum (Seronorm™ Human); type: physicochemical; details: Between 0 and 1 mM (Seronorm™ Human) - 20 MHz - 39° C.
# From the text: as §1
# The compounds object of the present invention are characterised by very high r1 and r2 relaxivity values. When measured in Seronorm™ Human at 20 MHz, at a temperature of 39° C., and at a concentration comprised from 0 to 1 mM, the compounds of the present invention have r1 relaxivity equal to or, preferably, higher than 15 s^−1mm^−1.
smiles,measurement,setting,value
"CCC(C)C(C(=O)[O-])N(CCN(CCN(CC(=O)[O-])C(C(=O)[O-])C(C)CC)[C@H](C(=O)[O-])[C@@H](C)CC)CC(=O)[O-].[Gd+3].[Na+].[Na+] (relative stereo) [Compound 2, [[[1S-[1R*(1R*,2R*),2R*]]-N,N-Bis[2-[(carboxymethyl)(1-carboxy-2-methylbutyl)amino]ethyl]-L-isoleucinate-(5-)]gadolinate(2-)]disodium salt.]",Relaxivity Saline r1,[1],5.07 mM⁻¹ s⁻¹
same,Relaxivity Serum r1,[2],11.9 mM⁻¹ s⁻¹

# Source: US6403055B1, “Diagnostic imaging contrast agent with improved in serum relaxivity” (Dibra S.p.A., priority 1996, dated 2002)
